{"source": "ChEMBL document CHEMBL6109168", "about": "“Novel Compounds as 5-HT2A Receptor Modulators for Treating Psychiatric and Neurological Disorders” (ACS Med Chem Lett, 2025)"}
{"molecular_target": "5-hydroxytryptamine receptor 2A (Homo sapiens, UniProt P28223)", "sequence (P28223 whole entry)": "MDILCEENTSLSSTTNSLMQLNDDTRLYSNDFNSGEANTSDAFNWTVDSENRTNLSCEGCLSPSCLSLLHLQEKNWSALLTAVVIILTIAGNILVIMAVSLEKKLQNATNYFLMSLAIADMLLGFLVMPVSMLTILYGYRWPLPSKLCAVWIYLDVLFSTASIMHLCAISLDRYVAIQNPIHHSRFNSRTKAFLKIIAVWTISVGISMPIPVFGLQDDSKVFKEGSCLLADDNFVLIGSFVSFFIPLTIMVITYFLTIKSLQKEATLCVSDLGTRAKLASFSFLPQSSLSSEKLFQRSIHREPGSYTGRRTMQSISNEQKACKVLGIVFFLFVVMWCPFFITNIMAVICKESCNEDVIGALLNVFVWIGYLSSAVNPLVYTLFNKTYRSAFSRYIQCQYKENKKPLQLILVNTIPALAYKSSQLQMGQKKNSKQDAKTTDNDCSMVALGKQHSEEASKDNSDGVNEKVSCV", "experiment": "Agonist activity at human 5HT2A receptor expressed in HEK293 cells assessed as IP1 accumulation by HTRF assay", "assay_type": "functional, cell-based", "units": {"EC50": "nM"}}
{"compound": "N#Cc1c(F)ccc2c(C3=CCCNC3)c[nH]c12", "EC50": "< 100"}
{"compound": "C1=C(c2csc3ccccc23)CNCC1", "EC50": "< 100"}
{"compound": "N#Cc1cc(F)cc2c(C3=CCCNC3)c[nH]c12", "EC50": "< 100"}
{"compound": "Oc1cccc2[nH]cc(C3=CCCNC3)c12", "EC50": "< 100"}
{"compound": "Fc1ccc2c(C3=CCCNC3)n[nH]c2c1F", "EC50": "< 100"}
{"compound": "COc1cc(Cl)c2[nH]cc(C3=CCCNC3)c2c1", "EC50": "< 100"}
